Among the data in patent US12616674B2, “Anti-fibrotic NEU3 inhibitor compounds and methods of use” (The Texas A&M University System, priority 2019, dated 2026) are IC50 values, retold here.

Molecules are shown by their SMILES. Like-named read-outs stand apart in the source and are kept apart here.

Assay [1] concerns NEU3-induced IL-6 production by human PBMC. As to the kind of experiment: NEU3-induced extracellular IL-6 accumulation by human PBMC (IL-6 concentration assay). In kind it is cell-based. Particulars: NEU3, serum-free medium, 48 hours. As for the experimental part:
Human peripheral blood was collected from healthy volunteers who gave written consent and with specific approval from the Texas A&M University human subjects review board. Peripheral blood mononuclear cells (PBMC) were isolated from the blood using Ficoll-Paque density gradient centrifugation (95021-205, GE Healthcare, Cincinnati, OH) following the manufacture's protocol. PBMC were cultured at […] in 96-well flat bottom tissue culture plates (type 62406-081; […] Louis, MO)) in a final volume of 200 μl per well. […] The sialidases were diluted in 100 μl of the same medium the cells were in, and added to 100 μl of cells at 1×10^5 cells/ml to make the total volume in a well 200 μl with 1×10^4 cells/well. The cells were then incubated at 37° C. in a humidified incubator with 5% CO2. The culture supernatants were collected after two or five days and assayed using an IL-6 ELISA kit (430501, Biolegend, San Diego, CA) following the manufacturer's protocol, reading absorbance with a SynergyMX plate reader (BioTek, Winooski, VT). Statistics were analyzed using Prism software (Graphpad, La Jolla, CA). At least three different donors were used for each assay. […] IL-6 in the culture supernatant was then assayed as described above. At least three different donors were used for each assay.

For assay [2], the target named is T1, recombinant human sialidase NEU3 (Homo sapiens, UniProt Q9UQ49).
T1 construct: purchased Origene TP316537
T1 sequence (Q9UQ49 1-428): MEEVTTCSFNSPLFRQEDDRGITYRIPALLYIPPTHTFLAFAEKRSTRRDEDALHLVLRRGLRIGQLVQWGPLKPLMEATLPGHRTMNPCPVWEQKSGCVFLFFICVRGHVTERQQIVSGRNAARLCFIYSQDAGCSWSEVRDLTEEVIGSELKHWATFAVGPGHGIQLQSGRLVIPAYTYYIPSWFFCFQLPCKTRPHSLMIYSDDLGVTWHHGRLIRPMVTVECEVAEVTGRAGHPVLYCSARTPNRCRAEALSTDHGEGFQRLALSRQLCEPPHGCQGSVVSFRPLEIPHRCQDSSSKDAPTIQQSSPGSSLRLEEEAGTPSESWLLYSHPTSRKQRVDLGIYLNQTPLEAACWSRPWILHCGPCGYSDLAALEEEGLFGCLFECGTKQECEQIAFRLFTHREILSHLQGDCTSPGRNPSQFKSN
Kind of assay: NEU3-catalyzed L-TGF-β1 activation (TGF-β1 release/concentration assay, active TGF-β1 ELISA). In kind it is biochemical. To be noted: recombinant human NEU3, L-TGF-β1, PBS pH 6.9, 2 hours 37° C. The method, then: To determine if NEU3 can cause latent transforming growth factor-β1 (L-TGF-β1) to release active TGF-β1, 200 ng/ml recombinant human L-TGF-β1 (299-LT/CF, R&D Systems) was incubated with varying concentrations of recombinant human NEU3 (TP316537, Origene) in a total volume of 100 μl of PBS pH 6.9 in a 96-well microplate (651261, Greiner Bio-one, Monroe, NC). The microplates were covered with aluminum foil and incubated at 37° C. for 2 hours. Following incubation, the reaction mixtures were assayed using a TGF-β1 ELISA kit (DY240, R&D Systems) following the manufacturer's protocol with the exception that the reaction mixtures were not processed for acid treatment, so as to measure only active TGF-β1 and not total TGF-β1. The absorbance was read with a SynergyMX plate reader (BioTek, Winooski, VT).
To determine the ability of compounds 1-31 to inhibit human recombinant NEU3 in-vitro, compounds were dissolved in 5 ml water to 20 mM in 15 ml tubes (89039-664, VWR, Radnor, PA), with the exception that 4-hydroxypyridine-2-carboxylic acid, nicotinic acid, and 4-aminopicolinic acid were dissolved in 50 μl DMSO to 2 M, and this was then added to 4.95 ml of water to make a 20 mM stock, and O-(tetrahydro-2H-pyran-2yl) hydroxylamine and salicylic acid were dissolved in 50 μl methanol to 2 M, and this was then added to 4.95 ml of water to make a 20 mM stock. All stocks were stored at 4° C. and used within 2 weeks of preparation. A 10-fold dilution series of the compounds starting at 2 mM were made in PBS pH 6.9 in 1.7 ml clear microtubes (22-281, Genesee Scientific). 100 μl of diluted compound was added to the well of a 96 well plate and then 50 μl of 400 ng/ml recombinant human sialidase NEU3 (TP316537, Origene) in PBS pH 6.9 was added to each well (50 μl PBS pH 6.9 for the control), and the plate was incubated for 30 minutes at 37° C. 50 μl of 800 ng/ml L-TGF-β1 (299-LT/CF, R&D Systems) in PBS pH 6.9 was then added to the well. The plate was covered with aluminum foil and incubated for 2 hours at 37° C., and released active TGF-β1 was assayed as described above.
In general terms: An ELISA detects its analyte on a solid surface through an enzyme-linked reagent.

The mark [3] stands for this setting: read-out: IC50, inhibits human NEU3 in the TGF-β1 concentration assay.
[4] abbreviates: read-out: IC50, inhibits human NEU3 in the TGF-β1 concentration (release) assay.

`O=C(O)c1cc(O)ccn1` [Compound 2, 4-hydroxypyridine-2-carboxylic acid]: the IC50 in assay [1] was over 300000 nM.
Consider `CC(=O)Nc1ccc(C(=O)O)nc1` [Compound 3, 5-acetamidopyridine-2-carboxylic acid], for which the figures for the IC50 in assay [2] (setting [3]) and in assay [1] were 11 nM and 6200 nM, respectively.
On to `O=C(O)c1ccccn1` [Compound 4, picolinic acid], for which the IC50 in assay [2] (setting [3]) was under 0.01 nM; in assay [1], over 100000 nM.
Turning to `Nc1ccnc(C(=O)O)c1` [Compound 7, 4-amino picolinic acid], the results for the IC50 in assay [2] (setting [3]) and in assay [1] were 4 nM and over 100000 nM, respectively.
In the case of `O=C(O)c1ccc([N+](=O)[O-])cn1` [Compound 8, 5-nitro picolinic acid], the figures for the IC50 in assay [2] (setting [3]) and in assay [1] were 43 nM and 79 nM, respectively.
In the case of `COc1ccnc(C(=O)O)c1` [Compound 9, 4-methoxy picolinic acid], the IC50 in assay [2] (setting [3]) was 3.2 nM; in assay [1], over 100000 nM.
In the case of `NC(=O)c1ccccn1` [Compound 10, picolinamide], the IC50 in assay [2] (setting [3]) is 22 nM; in assay [1], over 100000 nM.
For the compound `O=C(O)C1=CCCCN1` [Compound 12, sodium 1,4,5,6-tetrahydropyridine-2-carboxylate], in assay [2] (setting [4]), the IC50 stood at 120000 nM.
As to `O=C(O)[C@@H]1CCCCN1` [Compound 13, L-pipecolinic acid], the IC50 worked out at 0.49 nM in assay [2] (setting [3]) and 7900 nM in assay [1].
The like results for `O=C(O)c1cccnc1` [Compound 14, nicotinic acid] were, in that order, 0.011 nM and 1500 nM.
Consider `O=C(O)c1ccccc1O` [Compound 15, salicylic acid], for which, in assay [2] (setting [4]), the IC50 is 1800 nM.
In the case of `NOC1CCCCO1` (stereo not shown) [Compound 16, O-(tetrahydro-2H-pyran-2-yl)-hydroxylamine], the IC50 in assay [2] (setting [4]) came out at 2600 nM.
As to `O=C(O)c1cccc(CO)n1` [Compound 17, 6-(hydroxymethyl) picolinic acid], the values for the IC50 in assay [2] (setting [3]) and in assay [1] were 0.05 nM and 38 nM, respectively.
For `Nc1ccc(C(=O)O)nc1` [Compound 18, 5-aminopyridine-2-carboxylic acid], the values for the IC50 in assay [2] (setting [3]) and in assay [1] were 40 nM and 140 nM, respectively.
On to `O=[N+]([O-])c1ccccn1` [Compound 19, 2-Nitropyridine], for which the IC50 is 40 nM in assay [2] (setting [3]) and 20 nM in assay [1].
Regarding `CN1CCCCC1C(=O)O` (stereo not shown) [Compound 20, 1-methyl-2-piperidine carboxylic acid], the values for the IC50 in assay [2] (setting [4]) and in assay [1] were 500 nM and 30 nM, respectively.
On to `O=C(O)c1cc(C(F)(F)F)ccn1` [Compound 21, 4-(trifluoromethyl) picolinic acid], for which, in assay [1], the IC50 turned out to be 0.08 nM.
For the compound `Cc1ccnc(C(=O)O)c1` [Compound 22, 4-methylpicolinic acid], the IC50 in assay [2] (setting [4]) worked out at 130 nM; in assay [1], 4700 nM.
`Nc1ccncc1C(=O)O` [Compound 23, 4-aminonicotinic acid]: the IC50 in assay [2] (setting [3]) is 5 nM; in assay [1] it was 10000 nM.
Turning to `O=C(O)c1cc(=O)cc[nH]1` [Compound 24, 4-oxo-1,4-dihydropyridine-2-carboxylic acid], in assay [1], the IC50 turned out to be 8500 nM.
For the compound `NC1CCNC(C(=O)O)C1` (stereo not shown) [Compound 25, 2-piperidinecarboxylic acid, 4-amino], the IC50 in assay [2] (setting [3]) was determined as 2 nM; in assay [1], 0.13 nM.
The like results for `Cc1cccc(C(=O)O)n1` [Compound 27, 6-methyl-2-pyridinecarboxylic acid] were, in that order, under 0.01 nM and 4.1 nM.
Consider `CCOC(=O)C1=C[C@@H](OC(CC)CC)[C@H](NC(C)=O)[C@@H](N)C1` [Compound 28, oseltamivir, reference compound], for which the IC50 turned out to be 570 nM in assay [2] (setting [3]) and 47000 nM in assay [1].
With `O=C(O)[C@H]1CCCN1` [Compound 29, D-proline], the IC50 in assay [2] (setting [3]) was 63 nM; in assay [1], 4200 nM.
Regarding `O=C(O)c1ccc[nH]1` [Compound 30, pyrrole-2-carboxylic acid], the figures for the IC50 in assay [2] (setting [4]) and in assay [1] were 164000 nM and 9500 nM, respectively.
In the case of `O=C(O)C1CCCCCN1` (stereo not shown) [Compound 31, azepane-2-carboxylic acid], the IC50 in assay [2] (setting [3]) is 2.4 nM; in assay [1], 35 nM.
